A word on the IC50: it is the concentration that inhibits the measured activity by half.

The values below come from paper PMC9719525, “Design of MMP-1 inhibitors via SAR transfer and experimental validation” (Scientific Reports, 2022).

For test [1], the target named is T1, matrix metalloproteinase 1 (MMP-1) (Homo sapiens, UniProt P03956).
T1 construct: gene MMP1
T1 sequence (P03956 100-469): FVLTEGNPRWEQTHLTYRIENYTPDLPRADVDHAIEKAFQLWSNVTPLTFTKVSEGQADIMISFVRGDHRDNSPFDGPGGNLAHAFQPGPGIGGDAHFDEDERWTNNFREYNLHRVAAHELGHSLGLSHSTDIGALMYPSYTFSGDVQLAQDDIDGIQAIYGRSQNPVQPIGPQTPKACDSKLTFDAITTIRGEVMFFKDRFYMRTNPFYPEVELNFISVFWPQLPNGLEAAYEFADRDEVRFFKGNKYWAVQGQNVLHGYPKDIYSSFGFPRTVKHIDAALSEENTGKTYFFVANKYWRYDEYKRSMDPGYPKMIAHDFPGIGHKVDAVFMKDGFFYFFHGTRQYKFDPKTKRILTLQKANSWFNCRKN
Put plainly: colorimetric MMP-1 enzyme assay; compound previously reported (ref […]), resynthesized here. In kind it is biochemical. To be noted: cited from earlier work.

The target of test [2] is T1, matrix metalloproteinase 1 (MMP-1). Put plainly: colorimetric MMP-1 enzyme assay (ENZ BML-AK404-0001 kit, A412nm). In kind it is biochemical.

For the compound `C[C@H](C(=O)NO)N1CC[C@@](C)(c2ccc(C(F)(F)F)cc2)C1=O` [compound 4], the IC50 in test [1] is 0.12 ± 0.01 µM. As for `COc1ccc([C@]2(C)CCN([C@H](C)C(=O)NO)C2=O)cc1` [compound 5, (R)-N-hydroxy-2-((S)-3-(4-methoxyphenyl)-3-methyl-2-oxopyrrolidin-1-yl)propenamide], 0.36 ± 0.04 µM corresponded to half-maximal inhibition in test [2] (IC50). Turning to `C[C@H](C(=O)NO)N1CC[C@@](C)(c2ccc(Cl)cc2)C1=O` [compound 6, (R)-N-hydroxy-2-((S)-3-(4-chlorophenyl)-3-methyl-2-oxopyrrolidin-1-yl)propenamide], the IC50 in test [2] (read-out: IC50 (μM)^a) turned out to be 0.034 ± 0.026 µM. `Cc1ccc([C@]2(C)CCN([C@H](C)C(=O)NO)C2=O)cc1` [compound 7, (R)-N-hydroxy-2-((S)-3-(p-tolyl)-3-methyl-2-oxopyrrolidin-1-yl)propenamide]: the IC50 in test [2] (read-out: IC50 (μM)^a) was found to be 0.5 ± 0.023 µM.
